Test results taken from ChEMBL document CHEMBL1201862, “PubChem BioAssay data set” (2004).
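1) Cells in 96-well plates. 2) Compound, 48 h, 5 concentrations. 3) Linear interpolation between surrounding doses. 4) Unreached endpoint = highest concentration. At the GI50, growth is halved.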 The source made the active and inactive calls. No stated cut-off is given here; in the data, active = GI50 up to about 1.1 µM and inactive = higher.

Key:
Assay in all cases: DTP human tumour cell line panel, 48 h
[1] = test system: OVCAR-3
[2] = test system: HOP-62
[3] = test system: CCRF-CEM
[4] = test system: NCI-H460
[5] = test system: MDA-MB-435
[6] = test system: OVCAR-4
[7] = test system: PC-3
[8] = test system: UACC-62
[9] = test system: UO-31
[10] = test system: CAKI-1
[11] = test system: RPMI-8226
[12] = test system: Malme-3M
[13] = test system: SF-539
[14] = test system: MDA-MB-231
[15] = test system: U-251
[16] = test system: COLO 205
[17] = test system: DU-145
[18] = test system: SF-268
[19] = test system: HCC 2998
[20] = test system: HOP-92

What does the source list for CN(C)c1ccc(C(=O)NCCCCCCC(=O)NO)cc1?
GI50 [1]: 0.519 µM (active); GI50 [2]: 2.3 µM (inactive); GI50 [3]: 0.238 µM (active); GI50 [4]: 0.417 µM (active); GI50 [5]: 0.264 µM (active); GI50 [6]: 1.64 µM (inactive); GI50 [7]: 0.53 µM (active); GI50 [8]: 0.275 µM (active); GI50 [9]: 0.557 µM (active); GI50 [10]: 0.465 µM (active); GI50 [11]: 0.195 µM (active); GI50 [12]: 0.0948 µM (active); GI50 [13]: 0.589 µM (active); GI50 [14]: 0.697 µM (active); GI50 [15]: 0.486 µM (active); GI50 [16]: 0.33 µM (active); GI50 [17]: 0.335 µM (active); GI50 [18]: 0.435 µM (active); GI50 [19]: 0.348 µM (active); GI50 [20]: 0.713 µM (active)

What does the source list for c1ccc(CNCCCNCCCCNCCCNCc2ccccc2)cc1?
GI50 [1]: 11.9 µM (inactive); GI50 [2]: 4.15 µM (inactive); GI50 [3]: 1.86 µM (inactive); GI50 [4]: 6.27 µM (inactive); GI50 [5]: 4.22 µM (inactive); GI50 [6]: 13.8 µM (inactive); GI50 [7]: 4.88 µM (inactive); GI50 [8]: 6.59 µM (inactive); GI50 [9]: 12.2 µM (inactive); GI50 [10]: 10.3 µM (inactive); GI50 [11]: 2.22 µM (inactive); GI50 [12]: 2.02 µM (inactive); GI50 [13]: 1.76 µM (inactive); GI50 [14]: 6.5 µM (inactive); GI50 [15]: 7.87 µM (inactive); GI50 [16]: 1.82 µM (inactive); GI50 [17]: 12.8 µM (inactive); GI50 [18]: 12.2 µM (inactive); GI50 [19]: 5.66 µM (inactive); GI50 [20]: 1.42 µM (inactive)

How did the GI50 [1] turn out when N#CCCN(CCCN(C(=O)Nc1ccc(NC(=O)N(CCCN(CCC#N)C(N)=O)c2ccccc2)cc1)c1ccccc1)C(N)=O was run?
Its GI50 is > 100 µM (inactive).

And the GI50 [2]?
The GI50 was > 100 µM (inactive).

And the GI50 [3]?
Its GI50 is 87.5 µM (inactive).

What about the GI50 [4] of the same compound?
The GI50 was > 100 µM (inactive).

What about the GI50 [5] of the same compound?
Its GI50 is > 100 µM (inactive).

And the GI50 [6]?
Its GI50 is > 100 µM (inactive).

What about the GI50 [7] of the same compound?
The GI50 was > 100 µM (inactive).

And the GI50 [8]?
Its GI50 is > 100 µM (inactive).

What about the GI50 [9] of the same compound?
The GI50 was > 100 µM (inactive).

And the GI50 [10]?
The GI50 was > 100 µM (inactive).

And the GI50 [11]?
The GI50 was > 100 µM (inactive).

What about the GI50 [12] of the same compound?
The GI50 was > 100 µM (inactive).

And the GI50 [13]?
Its GI50 is > 100 µM (inactive).

And the GI50 [14]?
The GI50 was > 100 µM (inactive).

And the GI50 [15]?
The GI50 was > 100 µM (inactive).

What about the GI50 [16] of the same compound?
Its GI50 is > 100 µM (inactive).

And the GI50 [17]?
The GI50 was > 100 µM (inactive).

What about the GI50 [18] of the same compound?
Its GI50 is > 100 µM (inactive).

And the GI50 [19]?
The GI50 was > 100 µM (inactive).

What about the GI50 [20] of the same compound?
The GI50 was > 100 µM (inactive).

With CCCCCCCCCCCCCCCC(=O)OC(COC(C)=O)CO[PH](=O)O (centres undefined) as the compound, how does the GI50 [1] read?
Its GI50 is > 100 µM (inactive).

And the GI50 [3]?
The GI50 was 37.2 µM (inactive).

And the GI50 [4]?
The GI50 was 31.6 µM (inactive).

And the GI50 [5]?
Its GI50 is 29.5 µM (inactive).

What about the GI50 [6] of the same compound?
Its GI50 is 58.2 µM (inactive).

What about the GI50 [7] of the same compound?
The GI50 was 30.5 µM (inactive).

What about the GI50 [8] of the same compound?
The GI50 was 37.3 µM (inactive).

And the GI50 [9]?
Its GI50 is 26.3 µM (inactive).

And the GI50 [10]?
Its GI50 is 41.9 µM (inactive).

What about the GI50 [11] of the same compound?
Its GI50 is 78.2 µM (inactive).

And the GI50 [12]?
The GI50 was 34.8 µM (inactive).

What about the GI50 [13] of the same compound?
The GI50 was 20.8 µM (inactive).

And the GI50 [14]?
Its GI50 is 21.7 µM (inactive).

And the GI50 [15]?
Its GI50 is 21.6 µM (inactive).

And the GI50 [16]?
The GI50 was 96.8 µM (inactive).

What about the GI50 [17] of the same compound?
Its GI50 is 71.4 µM (inactive).

And the GI50 [18]?
Its GI50 is 19.3 µM (inactive).

And the GI50 [19]?
Its GI50 is 21.4 µM (inactive).

And the GI50 [20]?
Its GI50 is 12 µM (inactive).

Which GI50 [1] does the source give for O=C(CNc1ccc([N+](=O)[O-])cc1)Nn1c(-c2ccccc2)nc2ccccc2c1=O here?
The GI50 was 6.93 µM (inactive).

What about the GI50 [2] of the same compound?
The GI50 was 11.2 µM (inactive).

What about the GI50 [3] of the same compound?
Its GI50 is 0.811 µM (active).

And the GI50 [4]?
Its GI50 is 3.81 µM (inactive).

And the GI50 [5]?
The GI50 was 3.96 µM (inactive).

What about the GI50 [6] of the same compound?
The GI50 was 2.79 µM (inactive).

What about the GI50 [7] of the same compound?
Its GI50 is 3.07 µM (inactive).

And the GI50 [8]?
The GI50 was 1.32 µM (inactive).

What about the GI50 [9] of the same compound?
Its GI50 is 4.32 µM (inactive).

And the GI50 [10]?
The GI50 was 2.24 µM (inactive).

And the GI50 [11]?
Its GI50 is 2.47 µM (inactive).

What about the GI50 [12] of the same compound?
Its GI50 is 2.03 µM (inactive).

What about the GI50 [13] of the same compound?
The GI50 was 2.85 µM (inactive).

And the GI50 [14]?
Its GI50 is 3.52 µM (inactive).

What about the GI50 [15] of the same compound?
Its GI50 is 1.95 µM (inactive).

And the GI50 [16]?
Its GI50 is 2.28 µM (inactive).

And the GI50 [17]?
Its GI50 is 8.91 µM (inactive).

What about the GI50 [18] of the same compound?
The GI50 was 4.23 µM (inactive).

And the GI50 [19]?
Its GI50 is 9.02 µM (inactive).

What about the GI50 [20] of the same compound?
The GI50 was 0.377 µM (active).

Which results are given for CN(CC1(CO)CCC1)c1cc(Cl)nc(N)n1?
GI50 [1]: > 100 µM (inactive); GI50 [2]: > 100 µM (inactive); GI50 [3]: > 100 µM (inactive); GI50 [4]: > 100 µM (inactive); GI50 [5]: > 100 µM (inactive); GI50 [6]: 58.9 µM (inactive); GI50 [7]: > 100 µM (inactive); GI50 [8]: > 100 µM (inactive); GI50 [9]: > 100 µM (inactive); GI50 [10]: > 100 µM (inactive); GI50 [11]: > 100 µM (inactive); GI50 [12]: > 100 µM (inactive); GI50 [13]: > 100 µM (inactive); GI50 [14]: > 100 µM (inactive); GI50 [15]: > 100 µM (inactive); GI50 [16]: > 100 µM (inactive); GI50 [17]: > 100 µM (inactive); GI50 [18]: > 100 µM (inactive); GI50 [19]: > 100 µM (inactive); GI50 [20]: > 100 µM (inactive)

N=C(N)NS(=O)(=O)c1ccc(/N=N/c2c(O)c(C(=O)O)cc3ccccc23)cc1 was tested. Which GI50 [1] did it give?
The GI50 was > 100 µM (inactive).

And the GI50 [2]?
Its GI50 is > 100 µM (inactive).

What about the GI50 [3] of the same compound?
Its GI50 is > 100 µM (inactive).

And the GI50 [4]?
The GI50 was > 100 µM (inactive).

And the GI50 [5]?
Its GI50 is > 100 µM (inactive).

And the GI50 [6]?
The GI50 was > 100 µM (inactive).

And the GI50 [7]?
The GI50 was > 100 µM (inactive).

What about the GI50 [8] of the same compound?
The GI50 was > 100 µM (inactive).

And the GI50 [9]?
The GI50 was > 100 µM (inactive).

What about the GI50 [10] of the same compound?
Its GI50 is > 100 µM (inactive).

What about the GI50 [11] of the same compound?
The GI50 was > 100 µM (inactive).

What about the GI50 [12] of the same compound?
The GI50 was > 100 µM (inactive).

And the GI50 [13]?
The GI50 was > 100 µM (inactive).

And the GI50 [14]?
The GI50 was 47.4 µM (inactive).

And the GI50 [15]?
Its GI50 is > 100 µM (inactive).

What about the GI50 [16] of the same compound?
Its GI50 is > 100 µM (inactive).

What about the GI50 [17] of the same compound?
Its GI50 is > 100 µM (inactive).

What about the GI50 [18] of the same compound?
The GI50 was > 100 µM (inactive).

What about the GI50 [19] of the same compound?
Its GI50 is > 100 µM (inactive).

What about the GI50 [20] of the same compound?
Its GI50 is > 100 µM (inactive).
